# Experimental data reported in patent US9346812B2, “Substituted pyrrolopyrimidine compounds, compositions thereof, and methods of treatment therewith” (Signal Pharmaceutical LLC, priority 2013, dated 2016).
# pIC50: −log10 of the molar value.
# Test system: CAL51 cell proliferation
# Assay: Cell Titer Glo Proliferation Assay (CAL51)
# Assay type: cell-based, human
# Settings: Homo sapiens, CAL-51; CAL51 cell proliferation, 72 h, Cell Titer Glo luminescence; read-out: Act. Level
# Protocol: Cell Titer Glo Proliferation Assay. Triple negative breast cancer cell line CAL51 was purchased from DSMZ. […] Allcell lines were maintained in growth media consisting of 90% high glucose Dulbecco's Modified Eagle Medium or RPMI1640 (Invitrogen), 10% fetal bovine serum (Hyclone), and 2 mM L-glutamine (Invitrogen). […] After overnight culture, compound stock (30 mM) was diluted serially in DMSO, further diluted in growth media, and was added to each well as a 10× concentrated solution in a volume of 11 μL, mixed, and allowed to incubate with cells. The compound vehicle (DMSO) was maintained at a final concentration of 0.2% in all wells. After 72 h, 100 μL of Cell Titer Glo solution (Promega) was added to each well of the 96-well plate. The plate was placed on a shaker for 2 minutes. After 10 minutes incubation, the luminescence signal was detected with Envision microplate reader (Perkin Elmer).
row,SMILES,pIC50
1,"CNC(=O)c1ccc(Nc2nc(OC3CCCC3)c3c(-c4cncc(O)c4)c[nH]c3n2)c(OC)c1 [Example 51, 4-(4-(cyclopentyloxy)-5-(5-hydroxypyridin-3-yl)-7H-pyrrolo [2,3-d]pyrimidin-2-ylamino)-3-methoxy-N-methylbenzamide]",> 7.00
2,"COc1cc(CN)ccc1Nc1nc(OC2CCCC2)c2c(-c3ccc(O)cc3)c[nH]c2n1 [Example 52, 4-(2-(4-(aminomethyl)-2-methoxyphenylamino)-4-(cyclopentyloxy)-7H-pyrrolo[2,3-d]pyrimidin-5-yl)phenol]",6.40 to 7.00
3,"COc1nc(Nc2ccc(C(=O)N(C)C)cc2Cl)nc2[nH]cc(-c3ccc(-c4nnc[nH]4)cc3)c12 [Example 53, 4-(5-(4-(4H-1,2,4-triazol-3-yl)phenyl)-4-methoxy-7H-pyrrolo [2,3-d]pyrimidin-2-ylamino)-3-chloro-N,N-dimethylbenzamide]",6.40 to 7.00
4,"CNC(=O)c1ccc(Nc2nc(OC3CCCC3)c3c(-c4ccc(OC)c(F)c4)c[nH]c3n2)c(OC)c1 [Example 54, 4-(4-(cyclopentyloxy)-5-(3-fluoro-4-methoxyphenyl)-7H-pyrrolo[2,3-d]pyrimidin-2-ylamino)-3-methoxy-N-methylbenzamide]",6.40 to 7.00
5,"CNC(=O)c1ccc(Nc2nc(OC3CCCC3)c3c(-c4cccc(NC(C)=O)c4)c[nH]c3n2)c(OC)c1 [Example 56, 4-(5-(3-acetamidophenyl)-4-(cyclopentyloxy)-7H-pyrrolo[2,3-d]pyrimidin-2-ylamino)-3-methoxy-N-methylbenzamide]",> 7.00
6,"CNC(=O)c1ccc(Nc2nc(OC3CCCC3)c3c(-c4cccc(NS(C)(=O)=O)c4)c[nH]c3n2)c(OC)c1 [Example 57, 4-(4-(cyclopentyloxy)-5-(3-(methylsulfonamido)phenyl)-7H-pyrrolo[2,3-d]pyrimidin-2-ylamino)-3-methoxy-N-methylbenzamide]",6.40 to 7.00
7,"CNC(=O)c1ccc(Nc2nc(OC3CCCC3)c3c(-c4cccnc4)c[nH]c3n2)c(OC)c1 [Example 58, 4-(4-(cyclopentyloxy)-5-(pyridin-3-yl)-7H-pyrrolo[2,3-d]pyrimidin-2-ylamino)-3-methoxy-N-methylbenzamide]",> 7.00
8,"CNC(=O)c1cccc(-c2c[nH]c3nc(Nc4ccc(C(=O)NC)cc4OC)nc(OC4CCCC4)c23)c1 [Example 59, 4-(4-(cyclopentyloxy)-5-(3-(methylcarbamoyl)phenyl)-7H-pyrrolo[2,3-d]pyrimidin-2-ylamino)-3-methoxy-N-methylbenzamide]",6.40 to 7.00
9,"CNC(=O)c1ccc(Nc2nc(OC3CCCC3)c3c(-c4cccc(OC)c4)c[nH]c3n2)c(OC)c1 [Example 60, 4-(4-(cyclopentyloxy)-5-(3-methoxyphenyl)-7H-pyrrolo[2,3-d]pyrimidin-2-ylamino)-3-methoxy-N-methylbenzamide]",6.40 to 7.00
10,"CNC(=O)c1ccc(Nc2nc(OC3CCCC3)c3c(-c4ccc(S(C)(=O)=O)cc4)c[nH]c3n2)c(OC)c1 [Example 61, 4-(4-(cyclopentyloxy)-5-(4-(methyl-sulfonyl)phenyl)-7H-pyrrolo[2,3-d]pyrimidin-2-ylamino)-3-methoxy-N-methylbenzamide]",> 7.00
11,"CNC(=O)c1ccc(Nc2nc(OC3CCCC3)c3c(-c4ccc(NC(C)=O)cc4)c[nH]c3n2)c(OC)c1 [Example 62, 4-(5-(4-acetamidophenyl)-4-(cyclopentyloxy)-7H-pyrrolo[2,3-d]pyrimidin-2-ylamino)-3-methoxy-N-methylbenzamide]",> 7.00
12,"CNC(=O)c1ccc(Nc2nc(OC3CCCC3)c3c(-c4cccc(S(C)(=O)=O)c4)c[nH]c3n2)c(OC)c1 [Example 63, 4-(4-(cyclopentyloxy)-5-(3-(methyl-sulfonyl)phenyl)-7H-pyrrolo[2,3-d]pyrimidin-2-ylamino)-3-methoxy-N-methylbenzamide]",> 7.00
13,"CNC(=O)c1ccc(Nc2nc(OC3CCCC3)c3c(-c4ccc(OC)c(OC)c4)c[nH]c3n2)c(OC)c1 [Example 64, 4-(4-(cyclopentyloxy)-5-(3,4-dimethoxyphenyl)-7H-pyrrolo[2,3-d]pyrimidin-2-ylamino)-3-methoxy-N-methylbenzamide]",6.40 to 7.00
14,"CNC(=O)c1ccc(Nc2nc(OC3CCCC3)c3c(-c4cccc(N)c4)c[nH]c3n2)c(OC)c1 [Example 65, 4-(5-(3-aminophenyl)-4-(cyclopentyloxy)-7H-pyrrolo[2,3-d]pyrimidin-2-ylamino)-3-methoxy-N-methylbenzamide]",> 7.00
15,"CNC(=O)c1ccc(Nc2nc(OC3CCCC3)c3c(-c4ccncc4)c[nH]c3n2)c(OC)c1 [Example 66, 4-(4-(cyclopentyloxy)-5-(pyridin-4-yl)-7H-pyrrolo[2,3-d]pyrimidin-2-ylamino)-3-methoxy-N-methylbenzamide]",> 7.00
16,"COc1nc(Nc2ccc(C(=O)N3CCOCC3)cc2Cl)nc2[nH]cc(-c3ccc(-c4nnc[nH]4)cc3)c12 [Example 68, (4-(5-(4-(4H-1,2,4-triazol-3-yl)phenyl)-4-methoxy-7H-pyrrolo [2,3-d]pyrimidin-2-ylamino)-3-chlorophenyl)(morpholino) methanone]",6.40 to 7.00
17,"Cc1nc2ccc(-c3c[nH]c4nc(Nc5ccc(C(=O)N(C)C)cc5C)nc(NC5CCOCC5)c34)cc2o1 [Example 69, N,N,3-trimethyl-4-(5-(2-methylbenzo[d]oxazol-6-yl)-4-(tetrahydro-2H-pyran-4-ylamino)-7H-pyrrolo[2,3-d]pyrimidin-2-ylamino)benzamide]",6.40 to 7.00
18,"Cc1nc2ccc(-c3c[nH]c4nc(Nc5ccc(C(=O)N(C)C)cc5C)nc(OC5CCOCC5)c34)cc2o1 [Example 70, N,N,3-trimethyl-4-(5-(2-methylbenzo[d]oxazol-6-yl)-4-(tetrahydro-2H-pyran-4-yloxy)-7H-pyrrolo[2,3-d]pyrimidin-2-ylamino)benzamide]",6.40 to 7.00
19,"COc1nc(Nc2ccc(C(=O)N(C)C)cc2Cl)nc2[nH]cc(-c3ccc4[nH]c(N)nc4c3)c12 [Example 71, 4-(5-(2-amino-1H-benzo[d]imidazol-5-yl)-4-methoxy-7H-pyrrolo[2,3-d]pyrimidin-2-ylamino)-3-chloro-N,N-dimethylbenzamide]",6.40 to 7.00
20,"CNc1nc(Nc2ccc(C(=O)N(C)C)cc2Cl)nc2[nH]cc(-c3ccc(-c4nnc[nH]4)cc3)c12 [Example 72, 4-(5-(4-(4H-1,2,4-triazol-3-yl)phenyl)-4-(methylamino)-7H-pyrrolo[2,3-d]pyrimidin-2-ylamino)-3-chloro-N,N-dimethylbenzamide]",6.00 to 6.40
21,"COc1nc(Nc2ccc(C(=O)N(C)C)cc2C)nc2[nH]cc(-c3ccc4nc(C)oc4c3)c12 [Example 73, 4-(4-methoxy-5-(2-methylbenzo[d]oxazol-6-yl)-7H-pyrrolo[2,3-d]pyrimidin-2-ylamino)-N,N,3-trimethylbenzamide]",5.00 to 6.00
22,"Cc1nc2ccc(-c3c[nH]c4nc(Nc5ccc(C(=O)N6CCNCC6)cc5C)nc(NC5CCOCC5)c34)cc2o1 [Example 74, (3-methyl-4-(5-(2-methylbenzo[d]oxazol-6-yl)-4-(tetrahydro-2H-pyran-4-ylamino)-7H-pyrrolo [2,3-d]pyrimidin-2-ylamino)phenyl) (piperazin-1-yl)methanone]",6.40 to 7.00
23,"CNC(=O)c1ccc(Nc2nc(OC3CCCC3)c3c(-c4ccc(N(C)C)cc4)c[nH]c3n2)c(OC)c1 [Example 75, 4-(4-(cyclopentyloxy)-5-(4-(di-methylamino)phenyl)-7H-pyrrolo [2,3-d]pyrimidin-2-ylamino)-3-methoxy-N-methylbenzamide]",> 7.00
24,"CNC(=O)c1ccc(Nc2nc(OC3CCCC3)c3c(-c4ccc(OC)cc4)c[nH]c3n2)c(OC)c1 [Example 76, 4-(4-(cyclopentyloxy)-5-(4-methoxyphenyl)-7H-pyrrolo[2,3-d]pyrimidin-2-ylamino)-3-methoxy-N-methylbenzamide]",> 7.00
25,"CNC(=O)c1ccc(Nc2nc(OC3CCCC3)c3c(-c4ccc(C#N)cc4)c[nH]c3n2)c(OC)c1 [Example 77, 4-(5-(4-cyanophenyl)-4-(cyclopentyloxy)-7H-pyrrolo[2,3-d]pyrimidin-2-ylamino)-3-methoxy-N-methylbenzamide]",5.00 to 6.00
26,"CNC(=O)c1ccc(Nc2nc(OC3CCCC3)c3c(-c4ccc5c(ccn5C)c4)c[nH]c3n2)c(OC)c1 [Example 78, 4-(4-(cyclopentyloxy)-5-(1-methyl-1H-indol-5-yl)-7H-pyrrolo[2,3-d]pyrimidin-2-ylamino)-3-methoxy-N-methylbenzamide]",5.00 to 6.00
27,"CNC(=O)c1ccc(Nc2nc(OC3CCCC3)c3c(-c4cc[nH]n4)c[nH]c3n2)c(OC)c1 [Example 80, 4-(4-(cyclopentyloxy)-5-(1H-pyrazol-3-yl)-7H-pyrrolo[2,3-d]pyrimidin-2-ylamino)-3-methoxy-N-methylbenzamide]",> 7.00
28,"CNC(=O)c1ccc(Nc2nc(OC3CCCC3)c3c(-c4ccc5[nH]ccc5c4)c[nH]c3n2)c(OC)c1 [Example 81, 4-(4-(cyclopentyloxy)-5-(1H-indol-5-yl)-7H-pyrrolo[2,3-d]pyrimidin-2-ylamino)-3-methoxy-N-methylbenzamide]",6.00 to 6.40
29,"CNC(=O)c1ccc(Nc2nc(OC3CCCC3)c3c(-c4cn[nH]c4)c[nH]c3n2)c(OC)c1 [Example 82, 4-(4-(cyclopentyloxy)-5-(1H-pyrazol-4-yl)-7H-pyrrolo[2,3-d]pyrimidin-2-ylamino)-3-methoxy-N-methylbenzamide]",> 7.00
30,"COc1nc(Nc2ccc(C(=O)N(C)C)cc2Cl)nc2[nH]cc(-c3ccc4[nH]c(C)nc4c3)c12 [Example 83, 3-chloro-4-(4-methoxy-5-(2-methyl-1H-benzo[d]imidazol-5-yl)-7H-pyrrolo[2,3-d]pyrimidin-2-ylamino)-N,N-dimethylbenzamide]",> 7.00
